Experimental findings from PMC8933034, “6-Amino-2,4,5-trimethylpyridin-3-ol and 2-amino-4,6-dimethylpyrimidin-5-ol derivatives as selective fibroblast growth factor receptor 4 inhibitors: design, synthesis, molecular docking, and anti-hepatocellular carcinoma efficacy evaluation” (Journal of Enzyme Inhibition and Medicinal Chemistry, 2022) are described below.

Series [1] relates to Hep3B-xenografted CAM tumour model. In words: CAM (chick chorioallantoic membrane) tumour model implanted with Hep3B cells. Type of series: in vivo. On the procedure: Fertile chicken eggs were purchased from Byeolbichon Farm (Gyeongbuk, South Korea) and incubated at 37 °C and under 55% relative humidity. On the 9th day of egg incubation (post-fertilization), false air sac was generated on the relatively flat side of eggs by a negative pressure technique. A small window (1 cm^2) was created on the false air sac surface of the eggs by separating the shell and membrane beneath (technique) using a grinding wheel (Dremel, Racine, WI, USA). Next, Hep3B cells were loaded at a density of 1.5 × 10^6 cells/CAM with or without compound. After four days of drug treatment, the tumour weight, number of vessel branch points within the tumour region were analysed.

The target of the next series is T1, human FGFR4 kinase (Homo sapiens, UniProt P22455).
T1 construct: purchased Reaction Biology Corporation (Malvern, PA, USA), contract assay service
As to the kind of experiment: FGFR4 kinase assay (Kinase HotSpot, Reaction Biology Corp.). The series is classed as biochemical. As for the experimental part: A FGFR4 kinase assay was performed at the Reaction Biology Corporation (Malvern, PA, USA) using a Kinase HotSpotSM assay platform (www.reactionbiology.com, last accessed at 19/10/2020). Briefly, human FGFR4 kinase (5–10 mU), peptide substrate, and poly[Glu:Tyr] (4:1) 0.2 mg/ml were prepared in a reaction buffer with a final volume of 25 µL. The compounds were delivered into the reaction, followed ∼20 min. later by the addition of a mixture of ATP and [γ-^33P-ATP] (specific activity approx. 500 cpm/pmol, concentration as required) to a final concentration of 10 µM. After incubation for 40 min. at 25 °C, the reaction was stopped by the addition of a 3% phosphoric acid solution. Then, the reaction was spotted onto a P30 filtermat, and unbound phosphate was removed by washing 3 times for 5 min in 75 mM phosphoric acid and once in methanol prior to drying and scintillation counting. […] IC50 values and curve fits were obtained using GraphPad Prism 5 software.

Series [2] is described as follows: Cytotoxicity assay (MTT), H6c7. Type of series: cell-based. The conditions noted are these: human, H6c7 normal pancreatic duct epithelial cells, 48 h treatment, mean ± SEM of three independent experiments, read-out: IC50 on cell viability (cytotoxicity), H6c7. On the procedure:
(§1) Human HCC cell lines, Hep3B and Huh7 were obtained from American Type Culture Collection (ATCC, Manassas, VA, USA). An H6c7 human normal pancreatic duct epithelial cell line was purchased from Kerafast (Boston, MA, USA). Hep3B and Huh7 cells were cultured in Dulbecco′s Modified Eagle′s Medium (DMEM) (Hyclone, Logan, UT, USA). The media were supplemented with 10% foetal bovine serum (FBS) (Gibco/ThermoFisher Scientific) and 1% penicillin/streptomycin (Gibco/ThermoFisher Scientific). H6c7 cells were maintained in a keratinocyte serum-free medium supplemented with a recombinant […] growth factor (rEGF) and bovine pituitary extract (Gibco/ThermoFisher Scientific). All the cells were incubated at 37 °C under a 5% CO2 atmosphere.
The cytotoxicity of the compounds was assessed by measuring the cell viability decrease using the MTT staining method. Briefly, H6c7 cells were seeded in a 96-well plate (Falcon, USA) at a density of 4 × 10^4 cells per well in keratinocyte serum-free medium. After 24 h, Cells were incubated with different concentrations (0.1, 1, 3, 10, 30, and 100) µM of each compound for 48 h, and the cell viability was measured using MTT assay. Optical density was measured at 540 nm using a microplate reader (BMG LABTECH).

For another series, the target named is T2, FGFR2 (Homo sapiens, UniProt P21802).
T2 construct: purchased Promega, WI, USA
In words: FGFR2 ADP-glow kinase assay. The series is classed as biochemical. As for the experimental part:
(§2) FGFR1 ∼ 3 kinase assays were performed using the adenosine diphosphate (ADP)-glow kinase assay kit of FGFR1, FGFR2, and FGFR3 kinase enzyme systems (Promega, WI, USA) in accordance with the manufacturer’s instructions. […] The reaction was carried out at 25 °C for 1 h in a total volume of 25 µL. Subsequently, 25 µL of ADP-Glow reagent was added to the mixture, and then incubated for 40 min at 25 °C. After the addition of 50 µL of ADP detection reagents for 30 min at 25 °C, luminescence was measured using a Fluostar Omega microplate reader (BMG LABTECH GmbH, Ortenberg, Germany).

The target of a further series is T3, FGFR3 (Homo sapiens, UniProt P22607).
T3 construct: purchased Promega, WI, USA
In words: FGFR3 ADP-glow kinase assay. The series is classed as biochemical. As for the experimental part: as §2

Another series concerns Huh7 cells. As to the kind of experiment: Cell proliferation assay (MTT), Huh7. Type of series: cell-based, human. On the procedure:
as §1
(§3) Cells were seeded at a density of 5000 cells/well in a 96-well plate. After overnight incubation, the cells were serum-starved using 1% FBS for 24 h. The next day, the cells were pre-treated with the different concentrations (0.1, 1, 3, 10, 30, 100 µM) of drugs for 1 h prior to the treatment with serum (10% FBS). After 48 h of incubation, 3–(4,5-dimethylthiazol-2-yl)-2,5-diphenyltetrazolium bromide (MTT) dye solution was added and incubated for 4 h. Next, DMSO was added, and after 30 min, the colour intensities were measured using a microplate reader (Versamax, Molecular Devices, Inc., USA) at 490 nm.

A further series has as its target T4, FGFR1 (Homo sapiens, UniProt P11362).
T4 construct: purchased Promega, WI, USA
As to the kind of experiment: FGFR1 ADP-glow kinase assay. The series is classed as biochemical. As for the experimental part: as §2

In the next series the test system is Hep3B cells. In words: Cell proliferation assay (MTT), Hep3B. The series is classed as cell-based, human. As for the experimental part: as §1, §3
Setting [3] is: four days after Hep3B xenograft on CAM.
Where [4] appears, read: number of new vessel branches on CAM, four days.

T2 sequence (P21802 22-821): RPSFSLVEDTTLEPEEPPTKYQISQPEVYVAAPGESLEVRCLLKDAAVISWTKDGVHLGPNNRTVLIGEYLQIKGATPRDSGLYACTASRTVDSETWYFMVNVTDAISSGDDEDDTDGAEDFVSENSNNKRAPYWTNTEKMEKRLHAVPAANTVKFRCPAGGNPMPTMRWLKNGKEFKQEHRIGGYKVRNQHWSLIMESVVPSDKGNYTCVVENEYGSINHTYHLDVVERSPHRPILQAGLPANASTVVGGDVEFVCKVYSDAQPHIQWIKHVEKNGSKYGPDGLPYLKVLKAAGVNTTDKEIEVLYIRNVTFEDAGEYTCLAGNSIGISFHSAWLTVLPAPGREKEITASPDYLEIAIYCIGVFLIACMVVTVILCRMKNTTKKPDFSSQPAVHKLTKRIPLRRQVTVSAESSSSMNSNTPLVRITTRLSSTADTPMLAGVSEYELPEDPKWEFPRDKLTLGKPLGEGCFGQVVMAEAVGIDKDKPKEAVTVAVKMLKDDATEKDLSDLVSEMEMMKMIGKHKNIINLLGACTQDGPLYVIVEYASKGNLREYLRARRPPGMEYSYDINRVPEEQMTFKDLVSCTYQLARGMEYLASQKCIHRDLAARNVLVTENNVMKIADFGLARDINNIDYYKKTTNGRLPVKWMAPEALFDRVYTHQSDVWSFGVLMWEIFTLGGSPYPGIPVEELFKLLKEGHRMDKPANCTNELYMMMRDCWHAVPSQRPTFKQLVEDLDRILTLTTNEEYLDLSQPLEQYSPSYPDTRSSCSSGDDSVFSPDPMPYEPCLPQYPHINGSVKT
T1 sequence (P22455 22-802): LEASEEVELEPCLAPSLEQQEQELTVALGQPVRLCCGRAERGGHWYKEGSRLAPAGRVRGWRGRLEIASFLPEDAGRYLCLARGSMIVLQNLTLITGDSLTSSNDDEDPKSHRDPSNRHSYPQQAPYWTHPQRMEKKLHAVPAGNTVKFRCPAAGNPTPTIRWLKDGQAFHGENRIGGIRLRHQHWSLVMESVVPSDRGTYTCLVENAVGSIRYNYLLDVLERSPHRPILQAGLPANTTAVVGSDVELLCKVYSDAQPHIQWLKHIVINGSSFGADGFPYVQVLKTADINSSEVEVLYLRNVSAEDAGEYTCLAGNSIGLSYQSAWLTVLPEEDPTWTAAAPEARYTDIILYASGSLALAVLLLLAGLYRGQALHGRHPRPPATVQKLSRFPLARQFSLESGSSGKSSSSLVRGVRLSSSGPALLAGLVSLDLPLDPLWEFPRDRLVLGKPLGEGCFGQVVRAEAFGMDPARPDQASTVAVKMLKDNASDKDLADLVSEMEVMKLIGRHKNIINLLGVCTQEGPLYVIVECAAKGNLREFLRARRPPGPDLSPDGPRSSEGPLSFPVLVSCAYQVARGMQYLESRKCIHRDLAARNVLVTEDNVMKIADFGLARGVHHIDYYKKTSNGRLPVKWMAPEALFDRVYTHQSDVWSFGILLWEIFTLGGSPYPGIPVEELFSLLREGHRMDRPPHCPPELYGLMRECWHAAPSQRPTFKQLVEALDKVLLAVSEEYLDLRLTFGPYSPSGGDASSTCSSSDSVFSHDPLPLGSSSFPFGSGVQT
T3 sequence (P22607 23-806): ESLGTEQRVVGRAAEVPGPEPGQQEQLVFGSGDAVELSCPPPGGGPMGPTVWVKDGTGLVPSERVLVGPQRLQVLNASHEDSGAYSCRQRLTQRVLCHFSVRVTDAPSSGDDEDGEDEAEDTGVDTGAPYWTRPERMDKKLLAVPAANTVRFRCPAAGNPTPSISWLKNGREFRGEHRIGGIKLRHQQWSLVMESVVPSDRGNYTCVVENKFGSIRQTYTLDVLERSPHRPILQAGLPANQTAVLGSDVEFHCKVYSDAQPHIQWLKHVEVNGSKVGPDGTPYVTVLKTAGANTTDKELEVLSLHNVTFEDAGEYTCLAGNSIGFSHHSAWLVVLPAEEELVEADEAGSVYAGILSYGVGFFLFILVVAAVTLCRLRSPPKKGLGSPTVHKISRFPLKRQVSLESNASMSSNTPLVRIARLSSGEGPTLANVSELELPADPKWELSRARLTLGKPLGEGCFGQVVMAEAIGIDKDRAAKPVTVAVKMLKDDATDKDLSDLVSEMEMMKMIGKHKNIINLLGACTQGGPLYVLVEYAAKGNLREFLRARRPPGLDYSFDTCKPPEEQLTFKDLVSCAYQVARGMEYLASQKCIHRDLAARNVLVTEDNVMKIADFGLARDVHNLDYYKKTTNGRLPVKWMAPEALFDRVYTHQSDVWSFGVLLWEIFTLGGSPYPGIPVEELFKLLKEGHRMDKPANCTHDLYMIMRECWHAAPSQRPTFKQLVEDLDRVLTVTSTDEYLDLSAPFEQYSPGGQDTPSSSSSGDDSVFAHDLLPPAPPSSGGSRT
T4 sequence (P11362 22-822): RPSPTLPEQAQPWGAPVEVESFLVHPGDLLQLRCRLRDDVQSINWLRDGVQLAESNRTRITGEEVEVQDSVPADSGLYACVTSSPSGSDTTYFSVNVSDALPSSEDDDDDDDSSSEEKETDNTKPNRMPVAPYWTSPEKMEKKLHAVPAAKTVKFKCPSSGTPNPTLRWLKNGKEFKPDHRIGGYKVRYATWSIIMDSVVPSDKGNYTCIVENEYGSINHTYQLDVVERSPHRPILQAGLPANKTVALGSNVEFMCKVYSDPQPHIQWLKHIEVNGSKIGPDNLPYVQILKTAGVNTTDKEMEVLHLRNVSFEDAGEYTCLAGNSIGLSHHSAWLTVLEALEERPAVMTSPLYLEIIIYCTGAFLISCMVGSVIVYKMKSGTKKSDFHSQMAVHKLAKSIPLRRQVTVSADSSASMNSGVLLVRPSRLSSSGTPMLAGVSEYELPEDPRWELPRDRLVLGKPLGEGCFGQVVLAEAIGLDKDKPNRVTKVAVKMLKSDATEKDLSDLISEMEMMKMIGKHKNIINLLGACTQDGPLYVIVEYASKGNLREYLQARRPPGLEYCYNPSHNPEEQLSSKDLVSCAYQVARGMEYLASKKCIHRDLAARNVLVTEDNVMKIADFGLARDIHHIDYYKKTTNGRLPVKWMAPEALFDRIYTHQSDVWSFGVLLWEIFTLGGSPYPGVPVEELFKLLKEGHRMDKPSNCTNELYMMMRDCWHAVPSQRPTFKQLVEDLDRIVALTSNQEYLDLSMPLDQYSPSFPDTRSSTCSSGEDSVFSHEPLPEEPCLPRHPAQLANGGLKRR

Regarding `C=CC(=O)Nc1cc(F)cc(Cl)c1Nc1nc(C)c(OCc2c(F)c(OC)cc(OC)c2F)c(C)n1` [Compound 6O, N-(3-Chloro-2-((5-((2,6-difluoro-3,5-dimethoxybenzyl)oxy)-4,6-dimethylpyrimidin-2-yl)amino)-5-fluorophenyl)acrylamide], the “inhibitory effect on the tumour weight compared with compound 1” value in series [1] (setting [3]) is “slightly weaker”. Moreover, the tumour growth entry in series [1] (setting [3]) is given as “dose-dependently inhibited”. The “antiangiogenic effect compared with compound 1” value in series [1] (setting [4]) was “slightly weaker”. The tumour-induced angiogenesis result in series [1] (setting [4]) is listed as “significantly blocked”. Also, the concentration for half-maximal inhibition (IC50) on human FGFR4 kinase (7 different concentrations, three independent experiments) is 0.0753 µM; at FGFR2 (three independent experiments), 35.5 µM; against FGFR3 (three independent experiments), greater than 30 µM; in the series with Huh7 cells (Homo sapiens, Huh-7, 48 h treatment, mean ± SEM of three independent experiments), 12.6 ± 1.3 µM; against FGFR1 (three independent experiments) it was greater than 50 µM; in the series on Hep3B cells (Homo sapiens, Hep3B, 48 h treatment, mean ± SEM of three independent experiments), 4.5 µM. This molecule gave an inhibition at 1 µM against human FGFR4 kinase (fixed concentration 1 μM, mean of two independent experiments) of 96.7%. For the same molecule, the “FGFR4 selectivity compared to BLU9931 (1)” value at human FGFR4 kinase (from Table 1 ratios) is listed as “at least 8 times”. In addition, in series [2], the IC50 at 48 h amounted to 18 µM. Also, the “Ratio against FGFR4 (FGFR2)” value at FGFR2 (ratio of FGFR2 to FGFR4 inhibitory activity) is 471.1. The “Ratio against FGFR4 (FGFR3)” value on FGFR3 (ratio of FGFR3 to FGFR4 inhibitory activity) is greater than 398.3. Further, in the series with Huh7 cells (Huh7 versus Hep3B, 48 h), the “difference of anti-proliferative activity between Hep3B and Huh7” value was 2.8 fold. The “Ratio against FGFR4 (FGFR1)” value at FGFR1 (ratio of FGFR1 to FGFR4 inhibitory activity) is reported as greater than 663.8. Also, the “fold less potent than compound 1, Hep3B IC50” value in the series on Hep3B cells (48 h) stood at 5 fold.
